Experimental data as given in patent US9962369B2, “Methods and compositions for transdermal delivery” (SPRAYABLE HOLDINGS, INC., priority 2014, dated 2018).

Assays:
[1] = Transdermal delivery of melatonin: plasma level of melatonin after applying composition to skin of a subject; conditions: control 2.0 ml of […] melatonin suspension in water, plasma level at 1, 2, 4, 8 hours
human skin tissue = assay: Penetration rate of AI compound in AI-helper composition through human skin in vitro, modified Franz cells; type: in vitro ADME; conditions: for Skin penetration rate of Al compound: Al compound 0.5% w/v; for Skin penetration rate of Al compound / Skin penetration rate of AI compound: 25 °C; for Skin penetration rate of lipoic acid: alpha-lipoic acid 0.5% w/v, Tyrosine isopropyl ester•HA 6% w/v, 20° C.
Protocol: Penetration rate of AI compound in the AI-helper composition through human skin were measured in vitro by modified Franz cells. A Franz cell had two chambers: the top sample chamber and the bottom receiving chamber. The human skin tissue (450-500 μm thick) that separated the top and the receiving chambers was isolated from the anterior or posterior thigh areas.

[2] = 0.375 mL of 7% helper ester + 0.8% melatonin in water on skin of the back (20 cm×20 cm)
[3] = 0.60 mL of 7% helper ester + 0.5% melatonin in water on skin of the back (20 cm×20 cm)
[4] = 2-(Diethylamino)ethyl 2-(4-isobutylphenyl)propionate hydrochloride 6% w/v, water
[5] = D-Phenylalanine isopropyl ester hydrochloride 6% w/v, water
[6] = Dialkylaminoalkyl 2-(4-isobutylphenyl)propionate: None
[7] = L-Phenylalanine isopropyl ester hydrochloride 6% w/v, water
[8] = no isoleucine ester (None), AI compound 0.5 % w/v in water
[9] = no leucine ester (None), AI compound 0.5 % w/v in water
[10] = no tryptophan ester (None), AI compound 0.5 % w/v in water
[11] = with D-isoleucine isopropyl ester hydrochloride 6 % w/v in water, AI compound 0.5 % w/v
[12] = with D-leucine isopropyl ester hydrochloride 6 % w/v in water, AI compound 0.5 % w/v
[13] = with D-tryptophan isopropyl ester hydrochloride 6 % w/v in water, AI compound 0.5 % w/v
[14] = with L-isoleucine isopropyl ester hydrochloride 6 % w/v in water, AI compound 0.5 % w/v
[15] = with L-leucine isopropyl ester hydrochloride 6 % w/v in water, AI compound 0.5 % w/v
[16] = with L-tryptophan isopropyl ester hydrochloride 6 % w/v in water, AI compound 0.5 % w/v

## CCCCN(CCCC)CCOC(=O)c1ccccc1OC(C)=O [2-(Dibutylamino)ethyl 2-acetoxybenzoate]
[1]; [2]
  transdermal delivery of melatonin compared to control composition (A): more efficient and effective transdermal delivery of melatonin

## CCN(CC)CCOC(=O)c1ccccc1OC(C)=O [2-(Diethylamino)ethyl 2-acetoxybenzoate]
[1]; [2]
  transdermal delivery of melatonin compared to control composition (A): more efficient and effective transdermal delivery of melatonin

## CC(C)Cc1ccc(C(C)C(=O)OCCN(C)C)cc1 (centres unmarked) [2-(Dimethylamino)ethyl 2-(4-isobutylphenyl)propionate]
[1]; [3]
  transdermal delivery of melatonin compared to control composition (A): more efficient and effective transdermal delivery of melatonin

## CCN(CC)CCCOC(=O)c1ccccc1OC(C)=O [3-(Diethylamino)propyl 2-acetoxybenzoate]
[1]; [2]
  transdermal delivery of melatonin compared to control composition (A): more efficient and effective transdermal delivery of melatonin

## CCN(CC)CCCCOC(=O)C(C)c1ccc(CC(C)C)cc1 (centres unmarked) [4-(Diethylamino)butyl 2-(4-isobutylphenyl)propionate]
[1]; [3]
  transdermal delivery of melatonin compared to control composition (A): more efficient and effective transdermal delivery of melatonin

## CCN(CC)CCCCCOC(=O)C(C)c1ccc(CC(C)C)cc1 (centres unmarked) [5-(Diethylamino)pentyl 2-(4-isobutylphenyl)propionate]
[1]; [3]
  transdermal delivery of melatonin compared to control composition (A): more efficient and effective transdermal delivery of melatonin

## CC(=O)Oc1ccccc1C(=O)OCCCCCCN(C)C [6-(Dimethylamino)hexyl 2-acetoxybenzoate]
[1]; [2]
  transdermal delivery of melatonin compared to control composition (A): more efficient and effective transdermal delivery of melatonin

## CCCCCCOC(=O)[C@@H](N)[C@@H](C)CC [Isoleucine hexyl ester]
[1]; [3]
  transdermal delivery of melatonin compared to control composition (A): more efficient and effective transdermal delivery of melatonin

## CC[C@H](C)[C@H](N)C(=O)OC(C)C [Isoleucine isopropyl ester]
[1]; [3]
  transdermal delivery of melatonin compared to control composition (A): more efficient and effective transdermal delivery of melatonin

## CCCCCCOC(=O)[C@@H](N)CC(C)C [Leucine hexyl ester]
[1]; [3]
  transdermal delivery of melatonin compared to control composition (A): more efficient and effective transdermal delivery of melatonin

## CC(C)C[C@H](N)C(=O)OC(C)C [Leucine isopropyl ester]
[1]; [3]
  transdermal delivery of melatonin compared to control composition (A): more efficient and effective transdermal delivery of melatonin

## COC(=O)[C@@H](N)CC(C)C [Leucine methyl ester]
[1]; [3]
  transdermal delivery of melatonin compared to control composition (A): more efficient and effective transdermal delivery of melatonin

## CC(C)OC(=O)[C@@H](N)Cc1ccccc1 [Phenylalanine isopropyl ester]
[1]; [3]
  transdermal delivery of melatonin compared to control composition (A): more efficient and effective transdermal delivery of melatonin

## CCCCCCCCOC(=O)[C@@H](N)Cc1ccccc1 [Phenylalanine octyl ester]
[1]; [3]
  transdermal delivery of melatonin compared to control composition (A): more efficient and effective transdermal delivery of melatonin

## CCCCCCOC(=O)[C@@H]1CCCN1 [Proline hexyl ester]
[1]; [3]
  transdermal delivery of melatonin compared to control composition (A): more efficient and effective transdermal delivery of melatonin

## CC(C)OC(=O)[C@@H]1CCCN1 [Proline isopropyl ester]
[1]; [3]
  transdermal delivery of melatonin compared to control composition (A): more efficient and effective transdermal delivery of melatonin

## COC(=O)[C@@H]1CCCN1 [Proline methyl ester]
[1]; [3]
  transdermal delivery of melatonin compared to control composition (A): more efficient and effective transdermal delivery of melatonin

## O=C1O[C@H]([C@@H](O)CO)C(O)=C1O [Vitamin C]
Human skin tissue; [4]
  Skin penetration rate of Al compound: 10.112 ± 2.322 μg/cm^2/h
Human skin tissue; [5]
  Skin penetration rate of Al compound: 10.378 ± 2.155 μg/cm^2/h
Human skin tissue; [6]
  Skin penetration rate of Al compound: 0.016 ± 0.012 μg/cm^2/h
Human skin tissue; [7]
  Skin penetration rate of Al compound: 10.301 ± 2.022 μg/cm^2/h
Human skin tissue; Phenylalanine ester: None
  Skin penetration rate of Al compound: 0.017 ± 0.015 μg/cm^2/h
Human skin tissue; [8]
  Skin penetration rate of AI compound: 0.011 ± 0.008 μg/cm^2/h
Human skin tissue; [9]
  Skin penetration rate of AI compound: 0.008 ± 0.010 μg/cm^2/h
Human skin tissue; [10]
  Skin penetration rate of AI compound: 0.007 ± 0.013 μg/cm^2/h
Human skin tissue; [11]
  Skin penetration rate of AI compound: 8.526 ± 2.271 μg/cm^2/h
Human skin tissue; [12]
  Skin penetration rate of AI compound: 8.256 ± 2.078 μg/cm^2/h
Human skin tissue; [13]
  Skin penetration rate of AI compound: 11.136 ± 2.385 μg/cm^2/h
Human skin tissue; [14]
  Skin penetration rate of AI compound: 8.369 ± 2.102 μg/cm^2/h
Human skin tissue; [15]
  Skin penetration rate of AI compound: 8.378 ± 2.152 μg/cm^2/h
Human skin tissue; [16]
  Skin penetration rate of AI compound: 11.345 ± 2.612 μg/cm^2/h

## O=C(O)CCCCC1CCSS1 (centres unmarked) [lipoic acid]
Human skin tissue; HA = 1/2H2SO4, water
  Skin penetration rate of lipoic acid: 34.012 ± 2.685 μg/cm^2/h
Human skin tissue; HA = 1/3H3PO4, water
  Skin penetration rate of lipoic acid: 33.25 ± 2.762 μg/cm^2/h
Human skin tissue; HA = 2/3H3PO4, water
  Skin penetration rate of lipoic acid: 34.124 ± 2.912 μg/cm^2/h
Human skin tissue; HA = Acetic acid, water
  Skin penetration rate of lipoic acid: 33.513 ± 2.319 μg/cm^2/h
Human skin tissue; HA = Benzoic acid, water
  Skin penetration rate of lipoic acid: 32.913 ± 4.319 μg/cm^2/h
Human skin tissue; HA = Butyric acid, water
  Skin penetration rate of lipoic acid: 33.452 ± 3.756 μg/cm^2/h
Human skin tissue; HA = Citric acid, water
  Skin penetration rate of lipoic acid: 34.013 ± 2.569 μg/cm^2/h
Human skin tissue; HA = H2SO4, water
  Skin penetration rate of lipoic acid: 33.567 ± 3.125 μg/cm^2/h
Human skin tissue; HA = HBr, water
  Skin penetration rate of lipoic acid: 34.013 ± 3.219 μg/cm^2/h
Human skin tissue; HA = HCl, water
  Skin penetration rate of lipoic acid: 33.613 ± 2.819 μg/cm^2/h
Human skin tissue; HA = HF, water
  Skin penetration rate of lipoic acid: 33.613 ± 3.219 μg/cm^2/h
Human skin tissue; HA = HI, water
  Skin penetration rate of lipoic acid: 33.572 ± 3.129 μg/cm^2/h
Human skin tissue; HA = Lactic acid, water
  Skin penetration rate of lipoic acid: 32.987 ± 4.212 μg/cm^2/h

## Vitamin A
Human skin tissue; [4]
  Skin penetration rate of Al compound: 18.347 ± 3.132 μg/cm^2/h
Human skin tissue; [5]
  Skin penetration rate of Al compound: 20.015 ± 3.025 μg/cm^2/h
Human skin tissue; [6]
  Skin penetration rate of Al compound: 0.021 ± 0.011 μg/cm^2/h
Human skin tissue; [7]
  Skin penetration rate of Al compound: 20.177 ± 3.241 μg/cm^2/h
Human skin tissue; Phenylalanine ester: None
  Skin penetration rate of Al compound: 0.026 ± 0.015 μg/cm^2/h
Human skin tissue; [8]
  Skin penetration rate of AI compound: 0.015 ± 0.008 μg/cm^2/h
Human skin tissue; [9]
  Skin penetration rate of AI compound: 0.015 ± 0.011 μg/cm^2/h
Human skin tissue; [10]
  Skin penetration rate of AI compound: 0.018 ± 0.012 μg/cm^2/h
Human skin tissue; [11]
  Skin penetration rate of AI compound: 16.515 ± 3.212 μg/cm^2/h
Human skin tissue; [12]
  Skin penetration rate of AI compound: 16.315 ± 3.172 μg/cm^2/h
Human skin tissue; [13]
  Skin penetration rate of AI compound: 21.715 ± 3.685 μg/cm^2/h
Human skin tissue; [14]
  Skin penetration rate of AI compound: 16.656 ± 3.021 μg/cm^2/h
Human skin tissue; [15]
  Skin penetration rate of AI compound: 16.357 ± 3.121 μg/cm^2/h
Human skin tissue; [16]
  Skin penetration rate of AI compound: 20.977 ± 3.741 μg/cm^2/h

## Vitamin B12
Human skin tissue; [4]
  Skin penetration rate of Al compound: 8.127 ± 3.211 μg/cm^2/h
Human skin tissue; [5]
  Skin penetration rate of Al compound: 8.156 ± 2.875 μg/cm^2/h
Human skin tissue; [6]
  Skin penetration rate of Al compound: 0.016 ± 0.008 μg/cm^2/h
Human skin tissue; [7]
  Skin penetration rate of Al compound: 8.236 ± 3.057 μg/cm^2/h
Human skin tissue; Phenylalanine ester: None
  Skin penetration rate of Al compound: 0.012 ± 0.006 μg/cm^2/h
Human skin tissue; [8]
  Skin penetration rate of AI compound: 0.0011 ± 0.006 μg/cm^2/h
Human skin tissue; [9]
  Skin penetration rate of AI compound: 0.008 ± 0.009 μg/cm^2/h
Human skin tissue; [10]
  Skin penetration rate of AI compound: 0.007 ± 0.011 μg/cm^2/h
Human skin tissue; [11]
  Skin penetration rate of AI compound: 6.816 ± 2.372 μg/cm^2/h
Human skin tissue; [12]
  Skin penetration rate of AI compound: 6.756 ± 2.325 μg/cm^2/h
Human skin tissue; [13]
  Skin penetration rate of AI compound: 8.718 ± 3.125 μg/cm^2/h
Human skin tissue; [14]
  Skin penetration rate of AI compound: 6.873 ± 3.061 μg/cm^2/h
Human skin tissue; [15]
  Skin penetration rate of AI compound: 6.813 ± 3.111 μg/cm^2/h
Human skin tissue; [16]
  Skin penetration rate of AI compound: 8.897 ± 3.211 μg/cm^2/h

## Vitamin E
Human skin tissue; [4]
  Skin penetration rate of Al compound: 19.783 ± 4.025 μg/cm^2/h
Human skin tissue; [5]
  Skin penetration rate of Al compound: 21.363 ± 2.015 μg/cm^2/h
Human skin tissue; [6]
  Skin penetration rate of Al compound: 0.012 ± 0.006 μg/cm^2/h
Human skin tissue; [7]
  Skin penetration rate of Al compound: 21.357 ± 3.120 μg/cm^2/h
Human skin tissue; Phenylalanine ester: None
  Skin penetration rate of Al compound: 0.016 ± 0.011 μg/cm^2/h
Human skin tissue; [8]
  Skin penetration rate of AI compound: 0.016 ± 0.009 μg/cm^2/h
Human skin tissue; [9]
  Skin penetration rate of AI compound: 0.012 ± 0.007 μg/cm^2/h
Human skin tissue; [10]
  Skin penetration rate of AI compound: 0.008 ± 0.008 μg/cm^2/h
Human skin tissue; [11]
  Skin penetration rate of AI compound: 19.321 ± 3.012 μg/cm^2/h
Human skin tissue; [12]
  Skin penetration rate of AI compound: 19.723 ± 3.046 μg/cm^2/h
Human skin tissue; [13]
  Skin penetration rate of AI compound: 22.783 ± 3.145 μg/cm^2/h
Human skin tissue; [14]
  Skin penetration rate of AI compound: 19.412 ± 3.076 μg/cm^2/h
Human skin tissue; [15]
  Skin penetration rate of AI compound: 19.611 ± 3.126 μg/cm^2/h
Human skin tissue; [16]
  Skin penetration rate of AI compound: 23.657 ± 4.120 μg/cm^2/h
